Test results reported in ChEMBL document CHEMBL3885881, “DrugMatrix”.

Species: Rattus norvegicus
Experiment: DrugMatrix - Regimen: Daily Repeat
Assay type: toxicity, organism-based, Sprague-Dawley
Design: regimen Daily Repeat, gender Male, age 6-8 weeks
Settings: in vivo, po, route oral GAVAGE, vehicle .5 % CMC; for BASOPHIL / EOSINOPHIL / ERYTHROCYTE COUNT / HEMATOCRIT / HEMOGLOBIN / LEUKOCYTE COUNT / LYMPHOCYTE / MEAN CORPUSCULAR HEMOGLOBIN / MEAN CORPUSCULAR HEMOGLOBIN CONCENTRATION / MEAN CORPUSCULAR VOLUME / MONOCYTE / NEUTROPHIL / PLATELET COUNT: tissue Blood; for ALANINE AMINOTRANSFERASE / ALBUMIN / ALKALINE PHOSPHATASE / ASPARTATE AMINOTRANSFERASE / BLOOD UREA NITROGEN / CHLORIDE / CHOLESTEROL / CREATINE PHOSPHOKINASE / CREATININE / GLUCOSE / PHOSPHORUS / POTASSIUM / SODIUM / TOTAL BILIRUBIN / TOTAL PROTEIN: tissue Plasma
[1] = 38 mg/kg, 120 h, dose level Low, time 5 day
[2] = 269 mg/kg, 72 h, dose level High, time 3 day
[3] = 269 mg/kg, 120 h, dose level High, time 5 day

`CCCNC(=O)NS(=O)(=O)c1ccc(Cl)cc1` [CHLORPROPAMIDE] was tested, and the BASOPHIL [1] was 0%, the EOSINOPHIL [1] was 0.33% and the “ERYTHROCYTE COUNT” value [1] was 6.28 x10E6/uL. For the same compound, the HEMATOCRIT [1] was 38.47%, the HEMOGLOBIN [1] was 15 G/DL and the “LEUKOCYTE COUNT” value [1] was 16.07 x10E3/uL. The LYMPHOCYTE [1] was 86.67%, the “MEAN CORPUSCULAR HEMOGLOBIN” value [1] was 23.93 pg and the “MEAN CORPUSCULAR HEMOGLOBIN CONCENTRATION” value [1] was 39 G/DL. For the same compound, the “MEAN CORPUSCULAR VOLUME” value [1] was 61.4 fL, the MONOCYTE [1] was 1.67% and the NEUTROPHIL [1] was 11.33%. The “PLATELET COUNT” value [1] was 1190.33 x10E3/uL, the “ALANINE AMINOTRANSFERASE” value [1] was 35.67 u/L and the ALBUMIN [1] was 3.7 G/DL. The “ALKALINE PHOSPHATASE” value [1] was 350 u/L, the “ASPARTATE AMINOTRANSFERASE” value [1] was 61.33 u/L and the “BLOOD UREA NITROGEN” value [1] was 14.33 mg/dL. For the same compound, the CHLORIDE [1] was 106.33 MEQ/L, the CHOLESTEROL [1] was 65 mg/dL and the “CREATINE PHOSPHOKINASE” value [1] was 140.67 u/L. It also gave a CREATININE [1] of 0.6 mg/dL, a GLUCOSE [1] of 178 mg/dL and a PHOSPHORUS [1] of 11 mg/dL. For the same compound, the POTASSIUM [1] was 6.43 MEQ/L, the SODIUM [1] was 149.33 MEQ/L and the “TOTAL BILIRUBIN” value [1] was 0.37 mg/dL. The “TOTAL PROTEIN” value [1] was 6.1 G/DL, the BASOPHIL [2] was 0% and the EOSINOPHIL [2] was 0.33%. The “ERYTHROCYTE COUNT” value [2] was 6.04 x10E6/uL, the HEMATOCRIT [2] was 37% and the HEMOGLOBIN [2] was 14.33 G/DL. For the same compound, the “LEUKOCYTE COUNT” value [2] was 8.83 x10E3/uL, the LYMPHOCYTE [2] was 83.67% and the “MEAN CORPUSCULAR HEMOGLOBIN” value [2] was 23.93 pg. The “MEAN CORPUSCULAR HEMOGLOBIN CONCENTRATION” value [2] was 38.77 G/DL, the “MEAN CORPUSCULAR VOLUME” value [2] was 61.6 fL and the MONOCYTE [2] was 2%. The NEUTROPHIL [2] was 14%, the “PLATELET COUNT” value [2] was 1429 x10E3/uL and the “ALANINE AMINOTRANSFERASE” value [2] was 26 u/L. For the same compound, the ALBUMIN [2] was 3.83 G/DL, the “ALKALINE PHOSPHATASE” value [2] was 312 u/L and the “ASPARTATE AMINOTRANSFERASE” value [2] was 48.33 u/L. For the same compound, the “BLOOD UREA NITROGEN” value [2] was 17 mg/dL, the CHLORIDE [2] was 109.33 MEQ/L and the CHOLESTEROL [2] was 73 mg/dL. The “CREATINE PHOSPHOKINASE” value [2] was 142 u/L, the CREATININE [2] was 0.53 mg/dL and the GLUCOSE [2] was 163.33 mg/dL. It also gave a PHOSPHORUS [2] of 9.83 mg/dL, a POTASSIUM [2] of 5.8 MEQ/L and an SODIUM [2] of 151.33 MEQ/L. The “TOTAL BILIRUBIN” value [2] was 0.17 mg/dL, the “TOTAL PROTEIN” value [2] was 6.3 G/DL and the BASOPHIL [3] was 0%. For the same compound, the EOSINOPHIL [3] was 0%, the “ERYTHROCYTE COUNT” value [3] was 5.62 x10E6/uL and the HEMATOCRIT [3] was 33.9%. For the same compound, the HEMOGLOBIN [3] was 14.07 G/DL, the “LEUKOCYTE COUNT” value [3] was 10.7 x10E3/uL and the LYMPHOCYTE [3] was 76.67%. The “MEAN CORPUSCULAR HEMOGLOBIN” value [3] was 25.07 pg, the “MEAN CORPUSCULAR HEMOGLOBIN CONCENTRATION” value [3] was 41.53 G/DL and the “MEAN CORPUSCULAR VOLUME” value [3] was 60.37 fL. The MONOCYTE [3] was 2.33%, the NEUTROPHIL [3] was 21% and the “PLATELET COUNT” value [3] was 995.67 x10E3/uL. The “ALANINE AMINOTRANSFERASE” value [3] was 34.67 u/L, the ALBUMIN [3] was 3.7 G/DL and the “ALKALINE PHOSPHATASE” value [3] was 315.33 u/L. For the same compound, the “ASPARTATE AMINOTRANSFERASE” value [3] was 55.33 u/L, the “BLOOD UREA NITROGEN” value [3] was 16.33 mg/dL and the CHLORIDE [3] was 112.33 MEQ/L. For the same compound, the CHOLESTEROL [3] was 71.33 mg/dL, the “CREATINE PHOSPHOKINASE” value [3] was 127.33 u/L and the CREATININE [3] was 0.6 mg/dL. For the same compound, the GLUCOSE [3] was 173.33 mg/dL, the PHOSPHORUS [3] was 10.27 mg/dL and the POTASSIUM [3] was 5.83 MEQ/L. The SODIUM [3] was 155 MEQ/L, the “TOTAL BILIRUBIN” value [3] was 0.23 mg/dL and the “TOTAL PROTEIN” value [3] was 6.1 G/DL.
